Our source for the IC50 values is patent US9499495B2, “Quinazolines and azaquinazolines as dual inhibitors of RAS/RAF/MEK/ERK and PI3K/AKT/PTEN/mTOR pathways” (Asana Biosciences, LLC, priority 2013, dated 2016).

The target in one assay is T1, PI3Kα (Homo sapiens, UniProt P42336).
T1 construct: made in house; host or cells: SF9 cells
The experiment in a line: PI3 Kinase alpha TR-FRET assay. It counts as biochemical. A digest of the protocol:
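Purified Sf9-expressed p110/p85α (5 ng) was pre-incubated with compound and PIP2 at rt, then ATP was added (PIP2 and ATP both 40 μM) for a 30 min reaction. PIP3 was detected by TR-FRET displacement of biotin-PIP3, and IC50 was taken from dose-response curves of the 665/615 nm emission ratio.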

The subject of the next assay is pERK in A375 cells. The experiment in a line: In Cell Western (ICW) assay, pERK in A375 cells. It counts as cell-based. As to conditions: Homo sapiens, A-375, 3 h treatment. A digest of the protocol: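 After a 3 h compound treatment at 37 °C, fixed RKO or A375 cells were probed for phospho-ERK1/2 (T202/Y204), phospho-S6RP or phospho-AKT T308 and detected with a Eu-tagged anti-rabbit antibody (ex 340/em 615 nm), with Hoechst signal as the cell-number correction. Inhibition was referenced to DMSO, and IC50 values came from sigmoidal dose-response curves.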

The target in another assay is T2, mTOR kinase (Homo sapiens, UniProt P42345).
T2 construct: purchased Millipore, US
The experiment in a line: mTOR kinase TR-FRET assay. The format is biochemical. A digest of the protocol:
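TR-FRET with ULight-p70 S6K (Thr 389) peptide (50 nM) and 20 μM ATP in 50 mM HEPES pH 7.5, 1 mM EGTA, 3 mM MnCl2; compound pre-incubated with enzyme before substrate addition, reaction at rt, EDTA-stopped. Eu anti-phospho antibody read 665/615 nm; IC50 from sigmoidal dose-response fit.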
Background: In TR-FRET formats the signal depends on donor and acceptor labels being close together.

Another assay deals with A375 cells. The experiment in a line: XTT assay for cell viability, A375 cells. The format is cell-based. As to conditions: Homo sapiens, A-375, 72 h. A digest of the protocol:
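GI50 derived by sigmoidal dose-response fitting of proliferation normalised to DMSO control (100%). Readout: A450 after 2-3 h with XTT (1 mg/ml)/PMS (25 μM), following 72 h compound treatment at 37° C., 5% CO2 of cells plated at 1000-2000 per well the previous day.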
A general note: Tetrazolium dyes change colour on reduction, which living cells bring about.

T1 sequence (P42336 whole entry, species assumed): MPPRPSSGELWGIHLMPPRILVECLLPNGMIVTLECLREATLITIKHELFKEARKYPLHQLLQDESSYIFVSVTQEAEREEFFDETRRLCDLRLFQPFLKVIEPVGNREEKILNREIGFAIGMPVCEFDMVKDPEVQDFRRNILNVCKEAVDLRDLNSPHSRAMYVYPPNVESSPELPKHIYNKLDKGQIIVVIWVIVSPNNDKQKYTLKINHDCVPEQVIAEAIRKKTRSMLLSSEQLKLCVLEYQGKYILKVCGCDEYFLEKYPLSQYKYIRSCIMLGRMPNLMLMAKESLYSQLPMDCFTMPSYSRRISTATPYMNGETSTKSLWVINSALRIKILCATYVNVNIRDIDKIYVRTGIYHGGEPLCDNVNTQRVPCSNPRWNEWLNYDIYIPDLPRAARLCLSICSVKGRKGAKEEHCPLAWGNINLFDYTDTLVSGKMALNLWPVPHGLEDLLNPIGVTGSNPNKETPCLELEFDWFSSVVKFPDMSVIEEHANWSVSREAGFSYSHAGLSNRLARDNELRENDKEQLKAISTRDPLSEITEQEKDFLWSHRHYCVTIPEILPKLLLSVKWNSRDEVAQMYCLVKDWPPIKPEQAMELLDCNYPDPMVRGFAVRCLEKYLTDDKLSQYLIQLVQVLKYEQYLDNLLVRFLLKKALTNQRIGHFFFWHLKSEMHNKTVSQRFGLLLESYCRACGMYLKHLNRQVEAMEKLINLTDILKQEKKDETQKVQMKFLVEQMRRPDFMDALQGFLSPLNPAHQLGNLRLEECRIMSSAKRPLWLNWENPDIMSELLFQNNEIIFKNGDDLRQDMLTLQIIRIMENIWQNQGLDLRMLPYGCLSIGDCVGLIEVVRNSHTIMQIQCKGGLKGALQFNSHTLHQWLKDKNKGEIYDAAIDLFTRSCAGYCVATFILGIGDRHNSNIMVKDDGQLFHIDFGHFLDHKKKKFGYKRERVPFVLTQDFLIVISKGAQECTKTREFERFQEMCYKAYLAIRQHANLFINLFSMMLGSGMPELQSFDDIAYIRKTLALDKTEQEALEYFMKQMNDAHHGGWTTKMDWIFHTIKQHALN
T1 sequence (P27986 whole entry partner, species assumed): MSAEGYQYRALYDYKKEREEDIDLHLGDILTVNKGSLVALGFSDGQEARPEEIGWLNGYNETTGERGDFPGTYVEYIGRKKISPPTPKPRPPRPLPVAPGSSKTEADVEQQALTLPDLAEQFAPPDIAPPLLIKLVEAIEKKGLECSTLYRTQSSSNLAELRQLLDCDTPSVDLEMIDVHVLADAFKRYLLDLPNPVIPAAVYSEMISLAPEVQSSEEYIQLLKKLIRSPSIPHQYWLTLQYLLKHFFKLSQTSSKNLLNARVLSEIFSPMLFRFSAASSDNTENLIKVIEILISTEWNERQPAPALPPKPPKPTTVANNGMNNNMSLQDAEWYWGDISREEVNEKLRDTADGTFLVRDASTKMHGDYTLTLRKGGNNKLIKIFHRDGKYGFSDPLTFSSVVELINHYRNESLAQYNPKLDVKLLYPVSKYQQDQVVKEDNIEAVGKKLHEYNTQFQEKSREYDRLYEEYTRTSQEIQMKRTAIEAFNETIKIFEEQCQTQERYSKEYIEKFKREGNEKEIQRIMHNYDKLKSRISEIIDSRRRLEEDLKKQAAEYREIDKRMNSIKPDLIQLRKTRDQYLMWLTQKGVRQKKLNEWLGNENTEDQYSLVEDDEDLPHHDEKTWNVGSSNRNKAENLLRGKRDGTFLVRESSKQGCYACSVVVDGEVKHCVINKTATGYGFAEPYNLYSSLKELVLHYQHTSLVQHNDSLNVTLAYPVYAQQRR
T2 sequence (P42345 1362-2549 limits assumed): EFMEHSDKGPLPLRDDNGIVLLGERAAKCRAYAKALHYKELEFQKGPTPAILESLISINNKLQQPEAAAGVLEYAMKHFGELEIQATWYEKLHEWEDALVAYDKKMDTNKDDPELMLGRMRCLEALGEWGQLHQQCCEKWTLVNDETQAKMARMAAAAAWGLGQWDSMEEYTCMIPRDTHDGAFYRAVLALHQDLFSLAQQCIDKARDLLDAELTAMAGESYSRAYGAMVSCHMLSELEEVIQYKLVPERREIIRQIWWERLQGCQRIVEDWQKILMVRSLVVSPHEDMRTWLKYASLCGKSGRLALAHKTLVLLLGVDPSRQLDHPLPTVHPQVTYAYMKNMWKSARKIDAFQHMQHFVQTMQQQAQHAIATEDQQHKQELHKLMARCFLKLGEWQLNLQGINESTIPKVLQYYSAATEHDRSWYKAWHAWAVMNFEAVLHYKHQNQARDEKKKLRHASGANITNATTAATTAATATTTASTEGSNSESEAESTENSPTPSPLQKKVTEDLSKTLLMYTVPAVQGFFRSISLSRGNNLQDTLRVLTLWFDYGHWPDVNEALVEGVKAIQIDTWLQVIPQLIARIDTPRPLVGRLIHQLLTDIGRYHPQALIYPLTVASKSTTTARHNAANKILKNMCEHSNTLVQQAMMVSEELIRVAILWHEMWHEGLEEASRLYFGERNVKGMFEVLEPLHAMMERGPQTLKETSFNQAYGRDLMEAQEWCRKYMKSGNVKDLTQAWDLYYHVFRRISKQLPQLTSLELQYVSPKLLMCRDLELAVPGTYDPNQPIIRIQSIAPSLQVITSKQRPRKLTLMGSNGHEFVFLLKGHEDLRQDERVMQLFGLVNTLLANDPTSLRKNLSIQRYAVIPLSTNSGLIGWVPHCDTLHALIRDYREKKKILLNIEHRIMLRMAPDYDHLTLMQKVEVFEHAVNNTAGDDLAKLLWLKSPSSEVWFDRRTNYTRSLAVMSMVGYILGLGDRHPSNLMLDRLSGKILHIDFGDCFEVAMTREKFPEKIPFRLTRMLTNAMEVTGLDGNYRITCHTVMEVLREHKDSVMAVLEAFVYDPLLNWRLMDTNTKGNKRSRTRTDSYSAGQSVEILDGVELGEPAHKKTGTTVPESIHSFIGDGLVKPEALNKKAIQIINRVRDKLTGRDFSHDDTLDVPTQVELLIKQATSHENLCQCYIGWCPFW

For orientation: IC50 means the concentration needed to halve the response being measured. On to `CCCS(=O)(=O)Nc1cccc(-c2ccc3nc(-c4cnc(N)nc4)nc(N4CCOCC4)c3n2)c1F` [Example 7, N-(3-(2-(2-aminopyrimidin-5-yl)-4-morpholinopyrido[3,2-d]pyrimidin-6-yl)-2-fluorophenyl)propane-1-sulfonamide], for which the IC50 was 1 to 100 nM on PI3Kα, 100 to 1000 nM with pERK in A375 cells, 100 to 1000 nM against mTOR kinase and 100 to 1000 nM in the assay with A375 cells.

Consider `COc1cc2nc(-c3cnc(N)nc3)nc(N3CCOCC3)c2cc1-c1cccc(NS(=O)(=O)CCCF)c1F` [Example 11, N-(3-(2-(2-aminopyrimidin-5-yl)-7-methoxy-4-morpholinoquinazolin-6-yl)-2-fluorophenyl)-3-fluoropropane-1-sulfonamide], for which the IC50 against PI3Kα was 100 to 1000 nM; with pERK in A375 cells it was 1 to 100 nM; against mTOR kinase it was 1 to 100 nM; with A375 cells, 100 to 1000 nM.

Turning to `CNC(=O)Nc1ccc(-c2nc(N3CCOCC3)c3cc(-c4cccc(NS(=O)(=O)CCCF)c4F)cc(OC)c3n2)cn1` [Example 39, 3-fluoro-N-(2-fluoro-3-(8-methoxy-2-(6-(3-methylureido)pyridin-3-yl)-4-morpholinoquinazolin-6-yl)phenyl)propane-1-sulfonamide], the 50% inhibitory concentration (IC50) at PI3Kα was in the range of 100 to 1000 nM; with pERK in A375 cells, 1 to 100 nM; against mTOR kinase, 1 to 100 nM; in the assay with A375 cells it was 1 to 100 nM.

For the compound `COc1cc(-c2cccc(NS(=O)(=O)CCCF)c2F)cc2c(N3CCOC[C@H]3C)nc(-c3cnc(N)nc3)nc12` [Example 43, (R)-N-(3-(2-(2-aminopyrimidin-5-yl)-8-methoxy-4-(3-methylmorpholino)quinazolin-6-yl)-2-fluorophenyl)-3-fluoropropane-1-sulfonamide], the IC50 on PI3Kα was 100 to 1000 nM; in the assay on pERK in A375 cells, 1 to 100 nM; on mTOR kinase it was 1 to 100 nM; in the assay on A375 cells it was 1 to 100 nM.

As for `Nc1ncc(-c2nc(N3CCOCC3)c3cc(-c4cccc(NS(=O)(=O)CCCF)c4F)cc(N4CCOCC4)c3n2)cn1` [Example 69, N-(3-(2-(2-aminopyrimidin-5-yl)-4,8-dimorpholinoquinazolin-6-yl)-2-fluorophenyl)-3-fluoropropane-1-sulfonamide], the half-inhibitory concentration (IC50) lay in the range of 100 to 1000 nM on PI3Kα, 1 to 100 nM with pERK in A375 cells, 1 to 100 nM against mTOR kinase and 1 to 100 nM in the assay on A375 cells.

On to `COc1cc(-c2c(F)ccc(NS(=O)(=O)CCCF)c2F)cc2c(N3CCOCC3)nc(-c3ccc(N)nc3)nc12` [Example 79, N-(3-(2-(6-aminopyridin-3-yl)-8-methoxy-4-morpholinoquinazolin-6-yl)-2,4-difluorophenyl)-3-fluoropropane-1-sulfonamide], for which the IC50 lay within 100 to 1000 nM against PI3Kα, 1 to 100 nM in the assay with pERK in A375 cells, 1 to 100 nM against mTOR kinase and 1 to 100 nM in the assay on A375 cells.

Take `CCCS(=O)(=O)Nc1cccc(-c2ccc3nc(-c4ccc(N)nc4)nc(N4CCOCC4)c3n2)c1F` [Example 86, N-(3-(2-(6-aminopyridin-3-yl)-4-morpholinopyrido[3,2-d]pyrimidin-6-yl)-2-fluorophenyl)propane-1-sulfonamide]: the IC50 at PI3Kα lay within 1 to 100 nM; in the assay on pERK in A375 cells, 100 to 1000 nM; at mTOR kinase, 1 to 100 nM; with A375 cells it was 100 to 1000 nM.

For the compound `Nc1ncc(-c2nc(N3CCOCC3)c3nc(-c4cccc(NS(=O)(=O)CCCF)c4F)ccc3n2)cn1` [Example 87, N-(3-(2-(2-aminopyrimidin-5-yl)-4-morpholinopyrido[3,2-d]pyrimidin-6-yl)-2-fluorophenyl)-3-fluoropropane-1-sulfonamide], the 50% inhibitory concentration (IC50) at PI3Kα was 1 to 100 nM; in the assay on pERK in A375 cells it was 100 to 1000 nM; against mTOR kinase, 1 to 100 nM; with A375 cells it was 100 to 1000 nM.

As to `Nc1ccc(-c2nc(N3CCOCC3)c3nc(-c4cccc(NS(=O)(=O)CCCF)c4F)ccc3n2)cn1` [Example 88, N-(3-(2-(6-aminopyridin-3-yl)-4-morpholinopyrido[3,2-d]pyrimidin-6-yl)-2-fluorophenyl)-3-fluoropropane-1-sulfonamide], the half-maximal inhibitory concentration (IC50) on PI3Kα was in the range of 1 to 100 nM; in the assay on pERK in A375 cells, 100 to 1000 nM; against mTOR kinase it was 1 to 100 nM; in the assay with A375 cells, 100 to 1000 nM.

Take `Cc1cc(-c2nc(N3CCOCC3)c3nc(-c4cccc(NS(=O)(=O)CCCF)c4F)ccc3n2)cnc1N` [Example 90, N-(3-(2-(6-amino-5-methylpyridin-3-yl)-4-morpholinopyrido[3,2-d]pyrimidin-6-yl)-2-fluorophenyl)-3-fluoropropane-1-sulfonamide]: the IC50 at PI3Kα, in the assay on pERK in A375 cells, against mTOR kinase and in the assay with A375 cells was 100 to 1000 nM throughout.

As to `Nc1ccc(-c2nc(N3CCOCC3)c3nc(-c4cccc(NS(=O)(=O)c5cc(F)ccc5F)c4F)ccc3n2)cn1` [Example 92, N-(3-(2-(6-aminopyridin-3-yl)-4-morpholinopyrido[3,2-d]pyrimidin-6-yl)-2-fluorophenyl)-2,5-difluorobenzenesulfonamide], the half-maximal inhibitory concentration (IC50) against PI3Kα fell in the range of 1 to 100 nM; with pERK in A375 cells, 1 to 100 nM; at mTOR kinase, 100 to 1000 nM; in the assay on A375 cells, 1 to 100 nM.

With `Nc1ncc(-c2nc(N3CCOCC3)c3nc(-c4cccc(NS(=O)(=O)c5cc(F)ccc5F)c4F)ccc3n2)cn1` [Example 93, N-(3-(2-(2-aminopyrimidin 5-yl)-4-morpholinopyrido[3,2-d]pyrimidin-6-yl)-2-fluorophenyl)-2,5-difluorobenzenesulfonamide], the IC50 on PI3Kα is 1 to 100 nM; with pERK in A375 cells, 100 to 1000 nM; against mTOR kinase, 100 to 1000 nM; in the assay with A375 cells, 100 to 1000 nM.

Take `Nc1cc(C(F)(F)F)c(-c2nc(N3CCOCC3)c3nc(-c4cccc(NS(=O)(=O)CCCF)c4F)ccc3n2)cn1` [Example 94, N-(3-(2-(6-amino-4-(trifluoromethyl)pyridin-3-yl)-4-morpholinopyrido[3,2-d]pyrimidin-6-yl)-2-fluorophenyl)-3-fluoropropane-1-sulfonamide]: the half-inhibitory concentration (IC50) was in the range of 1 to 100 nM on PI3Kα, 1 to 100 nM with pERK in A375 cells, 1 to 100 nM against mTOR kinase and 100 to 1000 nM in the assay with A375 cells.

`Nc1ccc(-c2nc(N3CCOCC3)c3nc(-c4cccc(NS(=O)(=O)c5c(F)cccc5F)c4F)ccc3n2)cn1` [Example 95, N-(3-(2-(6-aminopyridin-3-yl)-4-morpholinopyrido[3,2-d]pyrimidin-6-yl)-2-fluorophenyl)-2,6-difluorobenzenesulfonamide]: the IC50 at PI3Kα is 100 to 1000 nM; in the assay with pERK in A375 cells, 100 to 1000 nM; against mTOR kinase, 1 to 100 nM; in the assay on A375 cells, 100 to 1000 nM.

With `C[C@@H]1COCCN1c1nc(-c2ccc(N)nc2)nc2ccc(-c3cccc(NS(=O)(=O)CCCF)c3F)nc12` [Example 96, (R)-N-(3-(2-(6-aminopyridin-3-yl)-4-(3-methylmorpholino)pyrido[3,2-d]pyrimidin-6-yl)-2-fluorophenyl)-3-fluoropropane-1-sulfonamide], the concentration for half-maximal inhibition (IC50) at PI3Kα was in the range of 100 to 1000 nM; in the assay with pERK in A375 cells, 1 to 100 nM; against mTOR kinase, 100 to 1000 nM; in the assay on A375 cells, 1 to 100 nM.

Regarding `C[C@@H]1COCCN1c1nc(-c2cnc(N)nc2)nc2ccc(-c3cccc(NS(=O)(=O)CCCF)c3F)nc12` [Example 97, (R)-N-(3-(2-(2-aminopyrimidin-5-yl)-4-(3-methylmorpholino)pyrido[3,2-d]pyrimidin-6-yl)-2-fluorophenyl)-3-fluoropropane-1-sulfonamide], the IC50 is 1 to 100 nM on PI3Kα, 1 to 100 nM with pERK in A375 cells, 100 to 1000 nM at mTOR kinase and 100 to 1000 nM with A375 cells.

As for `O=S(=O)(CCCF)Nc1cccc(-c2ccc3nc(-c4ccc(NCCO)nc4)nc(N4CCOCC4)c3n2)c1F` [Example 99, 3-fluoro-N-(2-fluoro-3-(2-(6-((2-hydroxyethyl)amino)pyridin-3-yl)-4-morpholinopyrido[3,2-d]pyrimidin-6-yl)phenyl)propane-1-sulfonamide], the concentration for half-maximal inhibition (IC50) against PI3Kα fell in the range of 100 to 1000 nM; with pERK in A375 cells it was 1 to 100 nM; against mTOR kinase, 1 to 100 nM; in the assay on A375 cells, 100 to 1000 nM.

As for `Cc1cc(N)ncc1-c1nc(N2CCOCC2)c2nc(-c3cccc(NS(=O)(=O)CCCF)c3F)ccc2n1` [Example 101, N-(3-(2-(6-amino-4-methylpyrtdin-3-yl)-4-morpholinopyrldo[3,2-d]pyrimidin-6-yl)-2-fluorophenyl)-3-fluoropropane-1-sulfonamide], the IC50 against PI3Kα was in the range of 1 to 100 nM; in the assay with pERK in A375 cells it was 1 to 100 nM; against mTOR kinase, 100 to 1000 nM; with A375 cells, 100 to 1000 nM.

For the compound `Nc1cc(F)c(-c2nc(N3CCOCC3)c3nc(-c4cccc(NS(=O)(=O)CCCF)c4F)ccc3n2)cn1` [Example 102, N-(3-(2-(6-amino-4-fluoropyridin-3-yl)-4-morpholinopyrido[3,2-d]pyrimidin-6-yl)-2-fluorophenyl)-3-fluoropropane-1-sulfonamide], the IC50 against PI3Kα is 1 to 100 nM; in the assay on pERK in A375 cells it was 100 to 1000 nM; against mTOR kinase, 1 to 100 nM; in the assay on A375 cells it was 100 to 1000 nM.
